Values after ≈ are worked out from the molar mass of the structure shown.
Tests used:
Test in all cases: microbe, parasite or virus in culture
Type in all cases: cell-based
[1] = system: Recombinant drug-resistant BCG Strain; conditions: Mycobacterium tuberculosis variant bovis BCG, 672 h
M. bovis BCG = conditions: Mycobacterium tuberculosis variant bovis BCG, 672 h
Mtb H37Rv = conditions: Mycobacterium tuberculosis, 672 h

`NCC[C@H](O)C(=O)N[C@@H]1C[C@H](N)[C@@H](O[C@H]2O[C@H](CN)[C@@H](O)[C@H](O)[C@H]2O)[C@H](O)[C@H]1O[C@H]1O[C@H](CO)[C@@H](O)[C@H](N)[C@H]1O` [AMK, amikacin] was tested. Which MIC [1] did it give?
Its MIC is 5 µg/mL (≈ 8.54 µM).

And the MIC (M. bovis BCG)?
The MIC was 0.5 µg/mL (≈ 0.854 µM).

What about the MIC (Mtb H37Rv) of the same molecule?
Its MIC is 0.5 to 1 µg/mL (≈ 0.854 to 1.71 µM).

Which MIC [1] does the source give for `CC(C)/N=c1\cc2n(-c3ccc(Cl)cc3)c3ccccc3nc-2cc1Nc1ccc(Cl)cc1` [CLA, clofazimine] here?
Its MIC is 0.5 µg/mL (≈ 1.06 µM).

What about the MIC (M. bovis BCG) of the same molecule?
The MIC was 0.25 µg/mL (≈ 0.528 µM).

And the MIC (Mtb H37Rv)?
The MIC was 8 µg/mL (≈ 16.9 µM).

For `CC[C@@H](CO)NCCN[C@@H](CC)CO` [EMB, ethambutol], which MIC [1] is on record?
Its MIC is 5 µg/mL (≈ 24.5 µM).

What about the MIC (M. bovis BCG) of the same molecule?
The MIC was 0.5 µg/mL (≈ 2.45 µM).

What about the MIC (Mtb H37Rv) of the same molecule?
The MIC was 0.5 µg/mL (≈ 2.45 µM).

Which MIC [1] does the source give for `NNC(=O)c1ccncc1` [INH, isoniazid] here?
Its MIC is 0.06 µg/mL (≈ 0.438 µM).

What about the MIC (M. bovis BCG) of the same molecule?
Its MIC is 0.1 µg/mL (≈ 0.729 µM).

What about the MIC (Mtb H37Rv) of the same molecule?
Its MIC is 0.03 to 0.06 µg/mL (≈ 0.219 to 0.438 µM).

Which results are given for `C[C@H]1COc2c(N3CCN(C)CC3)c(F)cc3c(=O)c(C(=O)O)cn1c23` [LFX, levofloxacin]?
MIC [1]: 4 µg/mL (≈ 11.1 µM); MIC (M. bovis BCG): 0.5 µg/mL (≈ 1.38 µM); MIC (Mtb H37Rv): 0.5 µg/mL (≈ 1.38 µM)

Which MIC [1] does the source give for `CC(=O)NC[C@H]1CN(c2ccc(N3CCOCC3)c(F)c2)C(=O)O1` [LZD, linezolid] here?
The MIC was 0.03 µg/mL (≈ 0.0889 µM).

And the MIC (M. bovis BCG)?
The MIC was 0.125 to 0.5 µg/mL (≈ 0.371 to 1.48 µM).

What about the MIC (Mtb H37Rv) of the same molecule?
The MIC was 0.25 µg/mL (≈ 0.741 µM).

Which results are given for `COc1c(N2C[C@@H]3CCCN[C@@H]3C2)c(F)cc2c(=O)c(C(=O)O)cn(C3CC3)c12` [MFX, moxifloxacin]?
MIC [1]: 4 µg/mL (≈ 9.96 µM); MIC (M. bovis BCG): 0.5 µg/mL (≈ 1.25 µM); MIC (Mtb H37Rv): 0.25 to 0.5 µg/mL (≈ 0.623 to 1.25 µM)

With `O=[N+]([O-])c1cn2c(n1)OC[C@@H](OCc1ccc(OC(F)(F)F)cc1)C2` [PA-824, Pretomanid] as the molecule, how does the MIC [1] read?
Its MIC is 0.25 µg/mL (≈ 0.696 µM).

What about the MIC (M. bovis BCG) of the same molecule?
The MIC was 0.25 µg/mL (≈ 0.696 µM).

What about the MIC (Mtb H37Rv) of the same molecule?
The MIC was 0.06 to 0.125 µg/mL (≈ 0.167 to 0.348 µM).

For `Nc1ccc(C(=O)O)c(O)c1` [PAS, para-aminosalicylic acid], which MIC [1] is on record?
Its MIC is 0.25 µg/mL (≈ 1.63 µM).

What about the MIC (M. bovis BCG) of the same molecule?
The MIC was 0.25 µg/mL (≈ 1.63 µM).

And the MIC (Mtb H37Rv)?
The MIC was 0.3 to 1 µg/mL (≈ 1.96 to 6.53 µM).

For `CCCc1cc(C(N)=S)ccn1` [PRO, prothionamide], which MIC [1] is on record?
Its MIC is 64 µg/mL (≈ 355 µM).

What about the MIC (M. bovis BCG) of the same molecule?
The MIC was 0.25 µg/mL (≈ 1.39 µM).

What about the MIC (Mtb H37Rv) of the same molecule?
The MIC was 0.5 µg/mL (≈ 2.77 µM).

Which results are given for `CO[C@H]1/C=C/O[C@@]2(C)Oc3c(C)c(O)c4c(O)c(c(/C=N/N5CCN(C)CC5)c(O)c4c3C2=O)NC(=O)/C(C)=C\C=C\[C@H](C)[C@H](O)[C@@H](C)[C@@H](O)[C@@H](C)[C@H](OC(C)=O)[C@@H]1C` [RIF, rifampicin]?
MIC [1]: 0.5 µg/mL (≈ 0.608 µM); MIC (M. bovis BCG): 0.032 µg/mL (≈ 0.0389 µM); MIC (Mtb H37Rv): 0.25 µg/mL (≈ 0.304 µM)

`[H]/N=C(/N)N[C@H]1[C@H](O)[C@@H](O)[C@H](O[C@@H]2O[C@@H](C)[C@](O)(C=O)[C@H]2O[C@@H]2O[C@@H](CO)[C@H](O)[C@@H](O)[C@@H]2NC)[C@@H](N/C(N)=N\[H])[C@@H]1O` [STR, streptomycin] was tested. Which MIC [1] did it give?
The MIC was 64 µg/mL (≈ 110 µM).

And the MIC (M. bovis BCG)?
Its MIC is 0.25 µg/mL (≈ 0.43 µM).

And the MIC (Mtb H37Rv)?
The MIC was 1 µg/mL (≈ 1.72 µM).

What does the source list for `COc1nc2ccc(Br)cc2cc1[C@@H](c1ccccc1)[C@@](O)(CCN(C)C)c1cccc2ccccc12` [TMC 207, bedaquiline]?
MIC [1]: 0.03 µg/mL (≈ 0.054 µM); MIC (M. bovis BCG): 0.03 µg/mL (≈ 0.054 µM); MIC (Mtb H37Rv): 0.03 to 0.12 µg/mL (≈ 0.054 to 0.216 µM)

Source: patent US12667608B2 (priority 2020, dated 2026)
